Source: article PMC7112121 (Bioorganic Chemistry, 2019)
Converted amounts (≈) assume the structure as drawn.

Key:
HSV-1 = experiment: Antiviral CPE reduction assay, HSV-1 in HEL cells; format: cell-based, Herpes simplex virus-1; conditions: for Antiviral EC50 HSV-1: HEL cells, CPE by microscopy, mean of two experiments; for EC50: Human alphaherpesvirus 1, HEL, read-out: Antiviral EC50 HSV-1
ACV^r-HSV-1 = experiment: Antiviral CPE reduction assay, ACVr-HSV-1 in HEL cells; format: cell-based; conditions: for Antiviral EC50 ACV^r-HSV-1: HEL cells, CPE by microscopy, mean of two experiments; for EC50: Human alphaherpesvirus 1, HEL, read-out: Antiviral EC50 ACV^r-HSV-1
HSV-2 = experiment: Antiviral CPE reduction assay, HSV-2 in HEL cells; format: cell-based, Herpes simplex virus-2; conditions: for Antiviral EC50 HSV-2: HEL cells, CPE by microscopy, mean of two experiments; for EC50: Human alphaherpesvirus 2, HEL, read-out: Antiviral EC50 HSV-2
Vaccinia virus = experiment: microbe, parasite or virus in culture; format: cell-based; conditions: for EC50: Orthopoxvirus vaccinia, HEL, read-out: Antiviral EC50 Vaccinia virus
[1] = tested on: Vesicular stomatitis virus; format: cell-based
Parainfluenza-3 virus = experiment: Antiviral CPE reduction assay, Parainfluenza-3 virus in VERO cells; format: cell-based; conditions: for Antiviral EC50 Parainfluenza-3 virus: VERO cells, CPE by microscopy, mean of two experiments; for EC50: Vero, read-out: Antiviral EC50 Parainfluenza-3 virus
Reovirus-1 = experiment: Antiviral CPE reduction assay, Reovirus-1 in VERO cells; format: cell-based; conditions: for Antiviral EC50 Reovirus-1: VERO cells, CPE by microscopy, mean of two experiments; for EC50: Vero, read-out: Antiviral EC50 Reovirus-1
Sindbis virus = experiment: Antiviral CPE reduction assay, Sindbis virus in VERO cells; format: cell-based; conditions: for Antiviral EC50 Sindbis virus: VERO cells, CPE by microscopy, mean of two experiments; for EC50: Sindbis virus, Vero, read-out: Antiviral EC50 Sindbis virus
Coxsackie B4 virus = experiment: Antiviral CPE reduction assay, Coxsackie B4 virus in VERO cells; format: cell-based; conditions: for Antiviral EC50 Coxsackie B4 virus: VERO cells, CPE by microscopy, mean of two experiments; for EC50: Enterovirus B, B4, Vero, read-out: Antiviral EC50 Coxsackie B4 virus
Punto Toro virus = experiment: Antiviral CPE reduction assay, Punto Toro virus in VERO cells; format: cell-based, Punta toro virus; conditions: for Antiviral EC50 Punto Toro virus: VERO cells, CPE by microscopy, mean of two experiments; for EC50: Punta Toro virus, Vero, read-out: Antiviral EC50 Punto Toro virus
DNA virus = experiment: Anti-DNA virus activity in HEL cells; format: cell-based
CRFK feline kidney cells = conditions: MTS cell viability assay
[2] = tested on: human embryonic lung (HEL) fibroblast cells; conditions: minimum cytotoxic concentration, microscopic inspection of cell morphology
VERO cells = conditions: minimum cytotoxic concentration, microscopic inspection of cell morphology
[3] = tested on: Mycobacterium tuberculosis H37Rv; conditions: for H37Rv Finding Activity: M. tuberculosis H37Rv, MABA in BACTEC 12B medium
Feline herpesvirus = experiment: Antiviral CPE reduction assay, Feline herpesvirus in CRFK cells; format: cell-based; conditions: Felid alphaherpesvirus 1, CRFK, read-out: Antiviral EC50 Feline herpesvirus
Feline coronavirus = experiment: microbe, parasite or virus in culture; conditions: Alphacoronavirus 1, CRFK, read-out: Antiviral EC50 Feline coronavirus
[4] = tested on: Mycobacterium tuberculosis H37Rv; experiment: microbe, parasite or virus in culture; conditions: for MIC: read-out: H37Rv Finding MIC
in vitro [5] = conditions: cat
in vitro [6] = conditions: African green monkey

SMILES: O=C(Cc1csc2nc(-c3ccc(Br)cc3)cn12)NN=C1CCC(c2ccccc2)CC1 (stereo not drawn) [Compound 4c, 6-(4-Bromophenyl)–N^2-(4-phenylcyclohexylidene)imidazo[2,1-b]thiazole-3-acetohydrazide]
- Antiviral EC50 HSV-1 (HSV-1): 45 µg/mL
- Antiviral EC50 ACV^r-HSV-1 (ACV^r-HSV-1): ≥45 µg/mL
- Antiviral EC50 HSV-2 (HSV-2): ≥45 µg/mL
- Antiviral EC50 Vaccinia virus (Vaccinia virus): 45 µg/mL
- Antiviral EC50 Vesicular stomatitis virus [1]: >100 µg/mL
- Antiviral EC50 Parainfluenza-3 virus (Parainfluenza-3 virus): >100 µg/mL
- Antiviral EC50 Reovirus-1 (Reovirus-1): >100 µg/mL
- Antiviral EC50 Sindbis virus (Sindbis virus): >100 µg/mL
- Antiviral EC50 Coxsackie B4 virus (Coxsackie B4 virus): >100 µg/mL
- Antiviral EC50 Punto Toro virus (Punto Toro virus): >100 µg/mL
- antiviral EC50 values, anti-DNA virus activity (DNA virus): about 45 µg/mL
- Cytotoxicity CC50 (CRFK feline kidney cells): >100 µg/mL
- Cytotoxicity MCC [2]: ≥100 µg/mL
- Cytotoxicity MCC (VERO cells): >100 µg/mL
- H37Rv Finding MIC [3]: >100 µg/mL
- H37Rv Finding Activity [3]: Weak Active

SMILES: O=C(Cc1csc2nc(-c3ccc(Br)cc3)cn12)NN=C1CCC(c2ccc(O)cc2)CC1 (stereo not drawn) [Compound 4d, 6-(4-Bromophenyl)–N^2-(4-hydroxyphenylcyclohexylidene)imidazo[2,1-b]thiazole-3-acetohydrazide]
- Antiviral EC50 HSV-1 (HSV-1): 45 µg/mL
- Antiviral EC50 ACV^r-HSV-1 (ACV^r-HSV-1): 45 µg/mL
- Antiviral EC50 HSV-2 (HSV-2): 45 µg/mL
- Antiviral EC50 Vaccinia virus (Vaccinia virus): 45 µg/mL
- Antiviral EC50 Vesicular stomatitis virus [1]: >100 µg/mL
- Antiviral EC50 Parainfluenza-3 virus (Parainfluenza-3 virus): >100 µg/mL
- Antiviral EC50 Reovirus-1 (Reovirus-1): >100 µg/mL
- Antiviral EC50 Sindbis virus (Sindbis virus): >100 µg/mL
- Antiviral EC50 Coxsackie B4 virus (Coxsackie B4 virus): >100 µg/mL
- Antiviral EC50 Punto Toro virus (Punto Toro virus): >100 µg/mL
- antiviral EC50 values, anti-DNA virus activity (DNA virus): about 45 µg/mL
- Cytotoxicity CC50 (CRFK feline kidney cells): 68 µg/mL
- Cytotoxicity MCC [2]: >100 µg/mL
- Cytotoxicity MCC (VERO cells): >100 µg/mL

SMILES: O=C(Cc1csc2nc(-c3ccc(Br)cc3)cn12)NN1C(=O)CSC12CCC(c1ccccc1)CC2 (stereo not drawn) [Compound 5c, 2-[6-(4-Bromophenyl)imidazo[2,1-b]thiazole-3-yl]-N-(3-oxo-8-phenyl-1-thia-4-azaspiro[4.5]dec-4-yl)acetamide]
- EC50 (Feline herpesvirus): > 100 µg/mL
- EC50 (HSV-1): > 100 µg/mL
- EC50 (ACV^r-HSV-1): > 100 µg/mL
- EC50 (HSV-2): > 100 µg/mL
- EC50 (Vaccinia virus): > 100 µg/mL
- EC50 (Parainfluenza-3 virus): > 100 µg/mL
- EC50 (Reovirus-1): > 100 µg/mL
- EC50 (Sindbis virus): > 100 µg/mL
- EC50 (Coxsackie B4 virus): > 100 µg/mL
- EC50 (Punto Toro virus): > 100 µg/mL
- Cytotoxicity MCC [2]: 20 µg/mL
- Cytotoxicity MCC (VERO cells): 20 µg/mL
- H37Rv Finding Activity [3]: Active
- EC50 (Feline coronavirus): > 100 µg/mL
- MIC [4]: 0.854 µg/mL (≈ 1.47 µM)
- IC50 ([4]; read-out: H37Rv Finding lC50): 0.76 µg/mL (≈ 1.31 µM)

SMILES: O=C(Cc1csc2nc(-c3ccc(Br)cc3)cn12)NN1C(=O)CSC12CCC(c1ccc(O)cc1)CC2 (stereo not drawn) [Compound 5d, 2-[6-(4-Bromophenyl)imidazo[2,1-b]thiazole-3-yl]-N-(3-oxo-8-(4-hydroxyphenyl)-1-thia-4-azaspiro[4.5]dec-4-yl)acetamide]
- EC50 (Feline herpesvirus): 21 µg/mL (≈ 35.1 µM)
- EC50 (HSV-1): > 100 µg/mL
- EC50 (ACV^r-HSV-1): > 100 µg/mL
- EC50 (HSV-2): > 100 µg/mL
- EC50 (Vaccinia virus): > 100 µg/mL
- EC50 (Parainfluenza-3 virus): > 100 µg/mL
- EC50 (Reovirus-1): > 100 µg/mL
- EC50 (Sindbis virus): > 100 µg/mL
- EC50 (Coxsackie B4 virus): > 100 µg/mL
- EC50 (Punto Toro virus): > 100 µg/mL
- Cytotoxicity MCC [2]: 20 µg/mL
- Cytotoxicity MCC (VERO cells): >100 µg/mL
- selectivity ratio (in vitro [5]): > 20
- EC50 (Feline coronavirus): 4.8 µg/mL (≈ 8.03 µM)

SMILES: CO[C@H]1/C=C/O[C@@]2(C)Oc3c(C)c(O)c4c(O)c(c(/C=N/N5CCN(C)CC5)c(O)c4c3C2=O)NC(=O)/C(C)=C\C=C\[C@H](C)[C@H](O)[C@@H](C)[C@@H](O)[C@@H](C)[C@H](OC(C)=O)[C@@H]1C [Rifampin, reference compound]
- H37Rv Finding Activity [3]: Active
- CC50 (in vitro [6]): > 100 µg/mL
- MIC [4]: 0.125 µg/mL (≈ 0.152 µM)
